Measurements published in patent US8012959B2, “Diaminopyrimidinecarboxamide derivative” (Astellas Pharma Inc., priority 2002, dated 2011).

Legend:
[1] = target: T1, STAT 6 (Homo sapiens, UniProt P42226); assay: STAT 6 tyrosine phosphorylation in IL-4-stimulated H292 cell (western blotting); assay type: cell-based; conditions: 1 μM compound, 10 ng/ml human IL-4, disappearance of the about 110 kDa band
T1 construct: host or cells: H292
T1 sequence (P42226 1-847): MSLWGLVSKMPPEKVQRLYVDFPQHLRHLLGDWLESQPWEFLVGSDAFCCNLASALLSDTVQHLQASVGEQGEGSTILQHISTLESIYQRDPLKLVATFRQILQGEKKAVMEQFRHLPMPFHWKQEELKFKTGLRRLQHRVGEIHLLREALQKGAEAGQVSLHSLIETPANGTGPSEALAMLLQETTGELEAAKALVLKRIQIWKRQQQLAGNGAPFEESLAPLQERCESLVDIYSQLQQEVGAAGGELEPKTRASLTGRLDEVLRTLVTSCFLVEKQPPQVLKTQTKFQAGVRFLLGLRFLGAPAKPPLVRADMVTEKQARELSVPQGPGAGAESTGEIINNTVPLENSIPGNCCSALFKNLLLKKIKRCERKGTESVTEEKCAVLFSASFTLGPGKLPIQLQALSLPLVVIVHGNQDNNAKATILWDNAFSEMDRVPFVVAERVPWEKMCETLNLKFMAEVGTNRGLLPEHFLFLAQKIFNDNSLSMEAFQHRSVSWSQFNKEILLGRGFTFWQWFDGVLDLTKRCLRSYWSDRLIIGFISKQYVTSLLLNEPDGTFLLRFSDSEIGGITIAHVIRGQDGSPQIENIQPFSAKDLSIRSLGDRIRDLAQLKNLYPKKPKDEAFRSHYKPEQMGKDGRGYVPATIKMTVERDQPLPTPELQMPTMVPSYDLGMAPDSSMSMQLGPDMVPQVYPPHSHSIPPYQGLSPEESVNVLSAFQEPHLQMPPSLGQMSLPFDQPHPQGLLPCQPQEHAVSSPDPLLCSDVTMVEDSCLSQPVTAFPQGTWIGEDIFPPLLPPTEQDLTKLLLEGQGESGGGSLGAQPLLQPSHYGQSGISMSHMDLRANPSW
Method: Measurement of STAT 6 Tyrosine Phosphorylation
The H292 cell (ATCC) (5×10^5 cells/0.5 ml) was inoculated into a 12 well plate (IWAKI) and cultured overnight, and then stimulation with 10 ng/ml of human IL-4 (Genzyme techne) was carried out. In the case of the evaluation of compounds, compound dilutions were added to the wells 20 minutes before the IL-4 stimulation. Also, regarding the dilution of compounds, dilution was carried out using 10% FBS-containing RPMI 1640 such that the final concentration of DMSO in which each compound was dissolved became 0.1% or less. This was washed three times with ice-cooled physiological phosphate buffer 20 minutes after the IL-4 stimulation. After the washing, 100 μl/well of a cell lysis solution (TNE buffer: 10 mM Tris-HCl pH 7.8, 1% NP-40, 0.15 M NaCl, 1 mM EDTA, 10 μg/ml aprotinin, 1 mM NaF and 1 mM Na3VO4) was added. The cell lysate was recovered, and 15 μl thereof was subjected to western blotting after SDS electrophoresis using an anti-tyrosine phosphorylated STAT 6 antibody (Cell Signaling). Whether or not the tyrosine phosphorylation band of about 110 kDa is disappeared, which is IL-4 stimulation-dependently detected, was judged. Also, uniform transference of the STAT 6 protein was confirmed using the same transfer membrane by western blotting which used an anti-STAT 6 antibody (SantaCruz).

[2] = test system: antigen-induced eosinophil infiltration; assay: Mouse asthma model (OA-sensitized, antigen-induced eosinophil infiltration in alveolar lavage fluid); assay type: in vivo; conditions: hydrochloride, oral administration, 1 mg/kg, for 3 days, female Balb/c mice
Method: Evaluation Using Mouse Asthma Model
Active sensitization of female Balb/c mice were carried out by intraperitoneally administering ovalbumin (OA) and an adjuvant, aluminum hydroxide gel (alum), twice. Mice were exposed to OA by inhalation 12 days after the initial sensitization and sacrificed by bloodletting 72 hours after the exposure, and then alveolar lavage was carried out. A compound to be tested or a control, 0.5% methyl cellulose, was orally administered for 3 days from before the OA exposure to before the alveolar lavage. After the measurement of total white blood cell count in the alveolar lavage fluid, cell smear preparations were stained to calculate existing ratio of eosinophil based on its morphological characteristics. The total number of eosinophils was calculated from the total white blood cell count and existing ratio of respective kinds of cells.

[3] = test system: neutrophil infiltration; assay: SO2 gas-induced intra-alveolar neutrophil infiltration model; assay type: in vivo; conditions: hydrochloride, oral administration, 10 mg/kg, for 2 days, male C57BL/6 mice, SO2 gas 600 ppm, alveolar lavage fluid
Method: Evaluation Using SO2 Gas-induced Intra-alveolar Neutrophil Infiltration Model Mouse Asthma Model
Male C57BL/6 mice were exposed to SO2 gas (600 ppm) for 3 hours and sacrificed by bloodletting 48 hours after the exposure, and then alveolar lavage was carried out. After the measurement of total white blood cell count in the alveolar lavage fluid, cell smear preparations were stained to calculate existing ratio of neutrophil based on its morphological characteristics. The number of neutrophils was calculated from the total white blood cell count and existing ratio of respective cells. A compound to be tested or a control, 0.5% methyl cellulose, was orally administered for 2 days from just before the exposure or just after the exposure to before the alveolar lavage.

inhibition of STAT 6 tyrosine phosphorylation [1]	Compound	inhibition of antigen-induced eosinophil infiltration [2]	inhibition of neutrophil infiltration [3]
completely inhibited	NC(=O)c1cnc(Nc2ccc(N3CCOCC3)cc2)nc1NCc1ccccc1 [Example 3, 4-benzylamino-2-{[4-(morpholin-4-yl)phenyl]amino}pyrimidine-5-carboxamide]	about 60%	about 70%
completely inhibited	Cc1cccc(Nc2nc(NCCc3ccc(O)c(Cl)c3)ncc2C(N)=O)c1 [Production Example 99]	–	–

Compound	inhibition of STAT 6 tyrosine phosphorylation [1]	inhibition of antigen-induced eosinophil infiltration [2]	inhibition of neutrophil infiltration [3]
COc1ccccc1CNc1nc(Nc2ccc(N3CCOCC3)cc2)ncc1C(N)=O [Example 35]	completely inhibited	–	–
